pIC50: −log10 of the molar value. Active and inactive are the calls of the source. No cut-off for these calls is given here.
Key:
Plasmodium falciparum = assay: Antiplasmodial activity against Plasmodium falciparum 3D7 infected in red blood cells assessed as parasitic growth inhibition incubated for 72 hrs by SYBR Green I staining based analysis; format: functional, organism-based; details: for pIC50: 3D7, 72 h
[1] = Cytotoxicity against human HFF cells assessed as reduction in cell viability incubated for 72 hrs by CCK-8 assay; format: toxicity, cell-based
[2] = Selectivity index, ratio of CC50 for human HFF cells to IC50 for Plasmodium falciparum 3D7; format: toxicity, cell-based; details: read-out: Selectivity Index

Compound	pIC50 (Plasmodium falciparum)	CC50 at 72 h [1] [µM]	selectivity ratio [2]	Activity (Plasmodium falciparum)
c1ccc(COc2ccc(-c3ncc(-c4ccccc4OCc4ccccc4)o3)cc2)cc1	5.32	72	14.8	–
COc1c(O)cc([C@@H]2COc3cc(O)ccc3C2)c(O)c1OC	5.21	5.6	0.9	–
COc1ccc([C@@H]2COc3cc(O)ccc3C2)c(OC)c1O	–	–	–	inactive
COc1cc([C@@H]2COc3cc(O)ccc3C2)c(O)c(OC)c1OC	–	–	–	inactive
COc1ccc2c(c1OC)O[C@H]1c3ccc(O)cc3OC[C@@H]21	–	–	–	inactive
COc1c(O)cc2c(c1OC)O[C@H]1c3ccc(O)cc3OC[C@@H]21	–	–	–	inactive
Oc1ccc(O)c(-c2cnc(-c3ccccc3)o2)c1	5.26	69.3	9.4	–
Oc1ccccc1-c1cnc(-c2ccccc2)o1	5.34	> 100	> 18.8	–
Oc1cccc(-c2cnc(-c3ccccc3)o2)c1O	5.51	8.5	2.7	–
C[C@@H]1CC[C@H]2[C@@H](C)C(=O)O[C@@H]3O[C@@]4(C)CC[C@@H]1[C@]32OO4 [ARTEMISININ]	7.60	> 200	> 7890	–
COc1ccc([C@@H]2COc3cc(O)ccc3C2)c(O)c1OC	–	–	–	inactive
COC1=C(OC)C(=O)C([C@@H]2COc3cc(O)ccc3C2)=CC1=O	5.24	13.7	2.3	–

— ChEMBL document CHEMBL6121042, “Isolation of Antiplasmodial Oxazoles and Isoflavonoids from the Roots of Oxytropis trichophysa and Total Synthesis of Oxazole-type Alkaloids” (J Nat Prod, 2025)
